Reference: patent US6884597B1, “Method for detecting acetyltransferase and deacetylase activities and method for screening inhibitors or enhancers of these enzymes” (Medical & Biological Laboratories, Co., Ltd., priority 1998, dated 2005)

How the values were obtained:
CMV promoter = CMV promoter activity in pcDNA3-GFP-harboring CHO cells detected using the GFP reporter gene; type: cell-based; conditions: 8 hours
Procedure: A plasmid vector (pcDNA3-GFP), in which GFP gene was introduced into a multicloning site immediately downstream of CMV promoter in pcDNA3 expression vector for mammalian cells in the forward direction was prepared by the standard method using E. coli. • 2. Introduction of the Plasmid Vector into Cells and Screening of Plasmid-Harboring Cells
pcDNA3-GFP was introduced into CHO cells by the lipofection method, and cultured for 24 hours at 37° C. in a 5% CO2 incubator (4 ml of DMEM was used as a culture medium per 6 cm-plate). Neomycin, an antibiotic, the resistance gene of which is carried on pcDNA3 plasmid, was added to the medium, and cultured for 2 weeks to select cells harboring pcDNA3-GFP. During this screening, the medium was replaced with a new one containing neomycin every four days. • 3. Screening of the Plasmid-Harboring Cells in which the Promoter Activity is Inhibited
The clones of the screened cells were transferred to separate plates and cultured. […] Several clones in which emission of the product of the GFP gene ligated downstream of CMV promoter was weak or was hardly detected were selected.
These cells were spread onto a 96-well plate for cell culture, adjusted to about 2500 cells per well (200 μl of DMEM was used as the culture medium per well), and cultured overnight (about 10 to 20 hours) at 37° C. in a 5% CO2 incubator to tightly attach the cells onto the plate. […]
The amount of GFP proteins expressing in cells in each well of the treated 96-well plate was measured with a fluorescent multiplate reader as change of fluorescence intensity.
As a result, an increase of florescence intensity was observed depending on the concentration of the deacetylase inhibitors (FIGS. 15, 16 and Tables 3 and 4).

histone deacetylase = assay: Detection of change in acetylation of histone in cells with anti-acetylated lysine antibody (cell ELISA); type: cell-based, human; conditions: Hela cells, 8 hours
Procedure: Hela cells were spread onto a 96-well plate for cell culture by adjusting 2500 cells per well (culture medium was DMEM, 200 μl thereof was used per well), and cultured at 37° C. overnight in a 5% CO2 incubator to tightly attach the cells onto the plate. • 3. Treatment with known Inhibitors for Histone Deacetylase […]
The medium was aspirated from each well without touching the cells, and each well was washed with 200 μl of PBS three times. After washing, 200 μl of 100% methanol cooled at −20° C. in advance was added to each well, left at room temperature for 5 min to fix the cells. […] was completely aspirated and dried.
The anti-acetylated lysine residue antibody was diluted to 0.5 μg/ml with the antibody dilution buffer and 100 μl thereof was added to each washed well, and left at 30° C. for 1 hour (the first reaction). After the first reaction, each well was washed with the washing buffer in the same manner, and 100 μl of goat anti-rabbit Ig (H+L) horse radish peroxidase label (MBL) diluted 2000 folds with the antibody dilution buffer was added to each well, and left at 30° C. for 1 hour (the second reaction). Each well was washed with washing buffer, and 100 μl of horse radish peroxidase substrate solution was added to each well and incubated at 30° C. for 30 min for the coloring reaction. 100 μl of the 1.5 N phosphate solution was added thereto to terminate the coloring reaction. Absorbance at 450 nm was measured using a microtiter plate reader.
As a result, an increase of absorbance was observed depending on the concentration of the deacetylase inhibitors (FIGS. 13 and 14, and Tables 1 and 2). In this measurement, a stronger inhibition of deacetylation of histone in cells accompanies a larger degree of acetylation of histone, and absorbance was increased depending on the increase in the concentration of antigen (an acetylated histone). Therefore, an inhibition of the deacetylase activity correlates to an increase of absorbance.

Sub p53-2 = molecular target: T1, Sub p53-2
T1 chain: SHLKSKKGQSTSR

Sub p53-1 = molecular target: T2, Sub p53-1
T2 chain: STSRHKKLMFKTE

[1] = tested on: sub p53-1 and sub p53-2 peptides; assay: ELISA system for measuring the acetyltransferase activity (liquid and solid phase); type: biochemical, human; conditions: 0 to 10 μg/ml; liquid and solid phases; depending on the concentration; FIGS. 9 and 10
Procedure: Two peptide substrates “Sub p53-1” (SEQ ID NO: 13/Bio-STSRHKKLMFKTE) and “Sub p53-2” (SEQ ID NO: 14/Bio-SHLKSKKGQSTSR) comprising the 373rd and 382nd lysine residues of the amino acid sequence of human p53, respectively, reported as an acetylation sites of acetyltransferase, were prepared by a peptide synthesizer. Amino acids in the peptide are shown in one-letter codes, and “Bio” at the amino ends means biotin. Ninety percent or higher purity was confirmed by HPLC. “Sub p53-1” and “Sub-p53-2” were composed of amino acids 376 to 388 and amino acids 367 to 379, respectively. […] The amplified PCR product was subcloned to pGEX, expressed as a fusion with GST, and purified (GST-p53 Cter). • (2) Preparation of a Peptide Substrate, “GST-p53 Cter” and a Streptoavidin Sensitized Plate […]
The synthesized peptide substrates and a recombinant acetyltransferase were reacted in the liquid phase, and the enzyme activity was measured by the ELISA system using a microtiter plate. […] 100 μl of 1.5 N phosphate solution were added to terminate the coloring reaction, and absorbance at 450 nm was measured using a microtiter plate reader. • Solid Phase Analysis System (Refer to FIG. 2) […]

## CCCC(=O)O [S. B., butyric acid]
CMV promoter; S. B. concentration 0.012 mM
  Relative fluorescence intensity (%): 8.5%
CMV promoter; S. B. concentration 0.049 mM
  Relative fluorescence intensity (%): 7.8%
CMV promoter; S. B. concentration 0.195 mM
  Relative fluorescence intensity (%): 13.3%
CMV promoter; S. B. concentration 0.78 mM
  Relative fluorescence intensity (%): 15.7%
CMV promoter; S. B. concentration 3.13 mM
  Relative fluorescence intensity (%): 50.3%
CMV promoter; S. B. concentration 12.5 mM
  Relative fluorescence intensity (%): 98.5%
CMV promoter; S. B. concentration 50 mM
  Relative fluorescence intensity (%): 100%
Histone deacetylase; S. B. concentration 0.012 mM
  Absorbance at 450 nm: 0.091
Histone deacetylase; S. B. concentration 0.049 mM
  Absorbance at 450 nm: 0.077
Histone deacetylase; S. B. concentration 0.195 mM
  Absorbance at 450 nm: 0.097
Histone deacetylase; S. B. concentration 0.78 mM
  Absorbance at 450 nm: 0.136
Histone deacetylase; S. B. concentration 3.13 mM
  Absorbance at 450 nm: 0.306
Histone deacetylase; S. B. concentration 12.5 mM
  Absorbance at 450 nm: 0.551
Histone deacetylase; S. B. concentration 50 mM
  Absorbance at 450 nm: 0.545

## CC(/C=C/C(=O)NO)=C\[C@@H](C)C(=O)c1ccc(N(C)C)cc1 [TSA, trichostatin A]
CMV promoter; TSA concentration 0.5 nM
  Relative fluorescence intensity (%): 2.2%
CMV promoter; TSA concentration 1.95 nM
  Relative fluorescence intensity (%): 1.8%
CMV promoter; TSA concentration 7.8 nM
  Relative fluorescence intensity (%): 5.1%
CMV promoter; TSA concentration 31.3 nM
  Relative fluorescence intensity (%): 12.3%
CMV promoter; TSA concentration 125 nM
  Relative fluorescence intensity (%): 34.2%
CMV promoter; TSA concentration 500 nM
  Relative fluorescence intensity (%): 73.1%
CMV promoter; TSA concentration 2000 nM
  Relative fluorescence intensity (%): 100%
Histone deacetylase; TSA concentration 0.5 nM
  Absorbance at 450 nm: 0.056
Histone deacetylase; TSA concentration 1.95 nM
  Absorbance at 450 nm: 0.056
Histone deacetylase; TSA concentration 7.8 nM
  Absorbance at 450 nm: 0.041
Histone deacetylase; TSA concentration 31.3 nM
  Absorbance at 450 nm: 0.071
Histone deacetylase; TSA concentration 125 nM
  Absorbance at 450 nm: 0.095
Histone deacetylase; TSA concentration 500 nM
  Absorbance at 450 nm: 0.278
Histone deacetylase; TSA concentration 2000 nM
  Absorbance at 450 nm: 0.476

B1: recombinant CBP (protein)
chain: QNRYHFCEKCFTEIQGENVTLGDDPSQPQTTISKDQFEKKKNDTLDPEPFVDCKECGRKMHQICVLHYDIIWPSGFVCDNCLKKTGRPRKENKFSAKRLQTTRLGNHLEDRVNKFLRRQNHPEAGEVFVRVVASSDKTVEVKPGMKSRFVDSGEMSESFPYRTKALFAFEEIDGVDVCFFGMHVQEYGSDCPPPNTRRVYISYLDSIHFFRPRCLRTAVYHEILIGYLEYVKKLGYVTGHIWACPPSEGDDYIFHCHPPDQKIPKPKRLQEWYKKMLDKAFAERIIHDYKDIFKQATEDRLTSAKELPYFEGDFWPNVLEESIKELEQEEEERKKEESTAASETTEGSQGDSKNAKKKNNKKTNKNKSSISRANKKKPSMPNVSNDLSQKLYATMEKHKEVFFVIHLHAGPVINTLPPIVDPDPLLSCDLMDGRDAFLTLARDKHWEFSSLRRSKWSTLCMLVELHTQGQDRFVYTCNEC
Sub p53-2
  acetyltransferase activity (ELISA with anti-acetylated peptide antibody, absorbance at 450 nm; liquid and solid phase): the acetyltransferase activities to "subp53-1" and "sub p53-2" peptides depending on the concentration of CBP were detected
Sub p53-1
  acetyltransferase activity (ELISA with anti-acetylated peptide antibody, absorbance at 450 nm; liquid and solid phase): the acetyltransferase activities to "subp53-1" and "sub p53-2" peptides depending on the concentration of CBP were detected
[1]
  acetyltransferase activities to sub p53-1 and sub p53-2 peptides: detected
